# Tested on: hepatocytes
# Assay: Seq-Well scRNA-Seq of hepatocytes after APAP overdose (signature scores, DEG vs untreated)
# Format: in vivo, mouse
# [1] = hepatocyte cluster A96 (APAP, 96 h) vs all other clusters
# [2] = hepatocytes, cluster A24 (APAP) vs other treatment clusters
# [3] = hepatocytes, cluster A48 (APAP) vs other treatment clusters
compound,measurement,setting,value
"CC(=O)Nc1ccc(O)cc1 [APAP, acetaminophen]",avg_logFC Fmo1,[1],0.2535
same,avg_logFC Gclm,[1],0.269
same,avg_logFC Hamp2,[1],0.2597
same,avg_logFC Hsd17b7,[1],0.3023
same,avg_logFC Lcat,[1],0.2519
same,avg_logFC Mocs2,[1],0.2666
same,avg_logFC Mtdh,[1],0.2838
same,avg_logFC Ndufa3,[1],0.2765
same,avg_logFC Ndufb2,[1],0.3005
same,avg_logFC Nfe2l2,[1],0.2513
same,avg_logFC Oat,[1],0.3213
same,avg_logFC Pabpc1,[1],0.2527
same,avg_logFC Pdk1,[1],0.2558
same,avg_logFC Prkd3,[1],0.2593
same,avg_logFC Ptp4a2,[1],0.2634
same,avg_logFC Rgn,[1],0.291
same,avg_logFC Sdhc,[1],0.2722
same,avg_logFC Sdhd,[1],0.261
same,avg_logFC Slc4a4,[1],0.2916
same,avg_logFC Slc25a10,[1],0.2605
same,avg_logFC Tgoln1,[1],0.2968
same,avg_logFC Tmed5,[1],0.2563
same,avg_logFC Tmem106b,[1],0.2604
same,avg_logFC Tob1,[1],0.301
same,avg_logFC Tsc22d3,[1],0.3181
same,avg_logFC Usmg5,[1],0.2565
same,avg_logFC Zfp91,[1],0.3255
same,AA474408 avg_logFC,[2],0.4148
same,Abca1 avg_logFC,[2],0.3831
same,Acox1 avg_logFC,[2],0.2743
same,Acsl4 avg_logFC,[2],0.299
same,Adh4 avg_logFC,[2],0.392
same,Ak3 avg_logFC,[2],0.2504
same,Aox3 avg_logFC,[2],0.3489
same,Arcn1 avg_logFC,[2],0.3044
same,Atp8b1 avg_logFC,[2],0.361
same,Atp11c avg_logFC,[2],0.2568
same,Atxn1 avg_logFC,[2],0.325
same,Calm1 avg_logFC,[2],0.3702
same,Calu avg_logFC,[2],0.3005
same,Canx avg_logFC,[2],0.2771
same,Cltc avg_logFC,[2],0.3397
same,Cmah avg_logFC,[2],0.4243
same,Copa avg_logFC,[2],0.3334
same,Cps1 avg_logFC,[2],0.2775
same,Ctnnb1 avg_logFC,[2],0.329
same,Cyb5r3 avg_logFC,[2],0.3097
same,Ddost avg_logFC,[2],0.2909
same,Dhcr24 avg_logFC,[2],0.2824
same,Dnajb11 avg_logFC,[2],0.3288
same,Dnajc12 avg_logFC,[2],0.324
same,Echdc1 avg_logFC,[2],0.2818
same,Edem1 avg_logFC,[2],0.2675
same,Efna1 avg_logFC,[2],0.3161
same,Eif4g1 avg_logFC,[2],0.2763
same,Eif4g2 avg_logFC,[2],0.3515
same,Eprs avg_logFC,[2],0.2513
same,Etnk1 avg_logFC,[2],0.3194
same,Fam120a avg_logFC,[2],0.2583
same,Fasn avg_logFC,[2],0.2699
same,Fndc3b avg_logFC,[2],0.3202
same,Fos avg_logFC,[2],0.3632
same,Gjb2 avg_logFC,[2],0.2998
same,Gm5424 avg_logFC,[2],0.262
same,Gm24245 avg_logFC,[2],0.414
same,Grlf1 avg_logFC,[2],0.2556
same,Hnf4a avg_logFC,[2],0.2549
same,Hs3st3b1 avg_logFC,[2],0.3219
same,Hsd3b5 avg_logFC,[2],0.3009
same,Hspa13 avg_logFC,[2],0.342
same,Ibtk avg_logFC,[2],0.2959
same,Il6st avg_logFC,[2],0.3011
same,Il13ra1 avg_logFC,[2],0.2889
same,Insig1 avg_logFC,[2],0.4125
same,Kmo avg_logFC,[2],0.2687
same,Lasp1 avg_logFC,[2],0.2608
same,Lgr4 avg_logFC,[2],0.2572
same,Lpgat1 avg_logFC,[2],0.2525
same,Lrg1 avg_logFC,[2],0.3096
same,Lrp1 avg_logFC,[2],0.4837
same,Lrrc59 avg_logFC,[2],0.2688
same,Met avg_logFC,[2],0.2512
same,Mlec avg_logFC,[2],0.3405
same,Mtss1 avg_logFC,[2],0.2522
same,Mtus1 avg_logFC,[2],0.3125
same,Mug2 avg_logFC,[2],0.3166
same,Nab1 avg_logFC,[2],0.2601
same,Nars avg_logFC,[2],0.3127
same,Nedd4 avg_logFC,[2],0.3305
same,Nr1d2 avg_logFC,[2],0.3855
same,Nr5a2 avg_logFC,[2],0.2599
same,Nrp1 avg_logFC,[2],0.33
same,Ostc avg_logFC,[2],0.3082
same,Prg4 avg_logFC,[2],0.4007
same,Prkd3 avg_logFC,[2],0.3041
same,Proz avg_logFC,[2],0.28
same,Pten avg_logFC,[2],0.2663
same,Ptprf avg_logFC,[2],0.2888
same,Qsox1 avg_logFC,[2],0.2817
same,Rab1 avg_logFC,[2],0.3145
same,Rpn1 avg_logFC,[2],0.3991
same,Rrbp1 avg_logFC,[2],0.2968
same,Sdf2l1 avg_logFC,[2],0.3078
same,Sec31a avg_logFC,[2],0.2596
same,Sec61b avg_logFC,[2],0.3008
same,Sel1l avg_logFC,[2],0.2833
same,Sh3bgrl avg_logFC,[2],0.2668
same,Slc3a1 avg_logFC,[2],0.3074
same,Slc38a10 avg_logFC,[2],0.2557
same,Spcs3 avg_logFC,[2],0.3907
same,Srebf1 avg_logFC,[2],0.3149
same,Srp72 avg_logFC,[2],0.28
same,Srpr avg_logFC,[2],0.2914
same,Ssr1 avg_logFC,[2],0.3129
same,Stard4 avg_logFC,[2],0.2922
same,Stt3b avg_logFC,[2],0.2648
same,Tmed7 avg_logFC,[2],0.3715
same,Tmem30a avg_logFC,[2],0.3056
same,Trip12 avg_logFC,[2],0.2832
same,Txndc5 avg_logFC,[2],0.2758
same,Uggt1 avg_logFC,[2],0.2805
same,Uso1 avg_logFC,[2],0.3202
same,Usp4 avg_logFC,[2],0.2959
same,Usp9x avg_logFC,[2],0.3387
same,Zbtb20 avg_logFC,[2],0.3135
same,Abcb4 avg_logFC,[3],0.4425
same,Abcd2 avg_logFC,[3],0.2813
same,Abhd14b avg_logFC,[3],0.4059
same,Acad11 avg_logFC,[3],0.3851
same,Agt avg_logFC,[3],0.5795
same,Ahcy avg_logFC,[3],0.34
same,Ahsg avg_logFC,[3],0.3592
same,Aldh9a1 avg_logFC,[3],0.3826
same,Aldob avg_logFC,[3],0.4375
same,Ambp avg_logFC,[3],0.286
same,Amy1 avg_logFC,[3],0.4216
same,Angptl3 avg_logFC,[3],0.6111
same,Apoa5 avg_logFC,[3],0.4483
same,Apoc2 avg_logFC,[3],0.8639
same,Apoc3 avg_logFC,[3],0.407
same,Apoe avg_logFC,[3],0.5049
same,Apoh avg_logFC,[3],0.4628
same,Atp5b avg_logFC,[3],0.3281
same,Atp5h avg_logFC,[3],0.5978
same,Bfar avg_logFC,[3],0.308
same,Bnip3 avg_logFC,[3],0.462
same,Cdo1 avg_logFC,[3],0.3971
same,Cebpb avg_logFC,[3],0.3684
same,Ces1b avg_logFC,[3],0.483
same,Ces1c avg_logFC,[3],0.5488
same,Chchd10 avg_logFC,[3],0.7517
same,Cox5a avg_logFC,[3],0.4197
same,Cox8a avg_logFC,[3],0.552
same,Cp avg_logFC,[3],0.4274
same,Cyp4a10 avg_logFC,[3],0.9326
same,Cyp4a14 avg_logFC,[3],1.281
same,Dbp avg_logFC,[3],0.2896
same,Ddb1 avg_logFC,[3],0.3544
same,Decr1 avg_logFC,[3],0.5669
same,Decr2 avg_logFC,[3],0.4129
same,Ech1 avg_logFC,[3],0.418
same,Echs1 avg_logFC,[3],0.4649
same,Ephx2 avg_logFC,[3],0.3869
same,F2 avg_logFC,[3],0.3952
same,F10 avg_logFC,[3],0.3927
same,F12 avg_logFC,[3],0.388
same,Fah avg_logFC,[3],0.3913
same,Fcgrt avg_logFC,[3],0.4084
same,Fkbp5 avg_logFC,[3],0.2572
same,Fth1 avg_logFC,[3],0.375
same,Gabarap avg_logFC,[3],0.4014
same,Gc avg_logFC,[3],0.2979
same,Gltscr2 avg_logFC,[3],0.3432
same,Gm6484 avg_logFC,[3],0.4108
same,Gm23935 avg_logFC,[3],0.4738
same,Grn avg_logFC,[3],0.431
same,Gstt3 avg_logFC,[3],0.3384
same,Gys2 avg_logFC,[3],0.4231
same,Hdac11 avg_logFC,[3],0.3557
same,Herpud1 avg_logFC,[3],0.6044
same,Hmgcl avg_logFC,[3],0.5501
same,Hmgcs2 avg_logFC,[3],0.7687
same,Hpx avg_logFC,[3],0.3851
same,Hrg avg_logFC,[3],0.5316
same,Hsd17b13 avg_logFC,[3],0.6221
same,Hspa8 avg_logFC,[3],0.4107
same,Khk avg_logFC,[3],0.5202
same,Lcat avg_logFC,[3],0.5054
same,Lims2 avg_logFC,[3],0.3761
same,Lpin1 avg_logFC,[3],0.515
same,Mat1a avg_logFC,[3],0.7753
same,Mfsd2a avg_logFC,[3],0.6614
same,Mlycd avg_logFC,[3],0.4378
same,Ndrg2 avg_logFC,[3],0.3482
same,Nr1i3 avg_logFC,[3],0.4759
same,Oaf avg_logFC,[3],0.5021
same,P4hb avg_logFC,[3],0.2981
same,Pabpc1 avg_logFC,[3],0.4782
same,Plin5 avg_logFC,[3],0.3985
same,Pnpla2 avg_logFC,[3],0.3465
same,Prodh2 avg_logFC,[3],0.5055
same,Rbp4 avg_logFC,[3],0.3942

# Reference: US20230053540A1, “TREATMENT OF LIVER INJURY” (Massachusetts Institute of Technology, priority 2019, published 2023)
